Results from US11976068B2 (CHIMERIX, INC., priority 2015, dated 2024).

What was measured:
[1] = Phase I trial, safety and toxicity assessment; conditions: for Adverse Events Grade 1 / Adverse Events Grade 2-4: 625 mg every three weeks
human MDR1 = human MDR1 (Homo sapiens, UniProt P08183); conditions: at 200 micromolar
[2] = tested on: 1020 genetically annotated cell lines; assay: Tumor type in vitro sensitivity, GDSC cell lines, cell viability at 72 hours; type: cell-based; conditions: tertile of average IC50
Text: The estimated IC50 values were averaged across multiple cell lines for each tumor type. Tumor types were categorized into three different groups that represented tertiles of average IC50 values.

TRAIL = assay: Phase I trial, serum TRAIL ELISA; type: in vivo, human
advanced solid tumors = assay: Phase I trial, tumor response (RECIST); type: in vivo, human
Protocol: Tumor responses were assessed using RECIST every 2 cycles.

[3] = tested on: cleaved cytokeratin 18 (cCK18); assay: Phase I trial, serum M30 assay; type: in vivo, human
Protocol: Serum levels of cleaved cytokeratin 18 (cCK18) were assessed using the M30 assay and serum levels of total cytokeratin 18 (CK18) were assessed using the M65 assay (Perviva A.B., Sweden). Assessments of other tumor-specific markers were also evaluated per standard of care.
Given the heterogeneity of the tumor types in the enrolled patients, no widely used biomarker was available to uniformly assay all patient samples. In particular, the serum M30 assay is able to detect a caspase-cleaved form of cytokeratin-18 that occurs during apoptosis, which is useful in a heterogeneous study of solid tumors because most solid tumors express cytokeratin-18. The M30 sandwich ELISA has been used extensively in clinical trials as biomarkers of cell death induced by a variety of different cancer chemotherapeutic agents in a spectrum of different solid tumors. In addition to the serum M30 assay, the M65 sandwich ELISA assay, which has also been used in clinical studies to detect increases in total cytokeratin 18 that can occur with tumor necrosis and disease progression, was used to differentiate tumor apoptosis from necrosis.

[4] = Pat # 8, Colon adenocarcinoma, dose escalation phase
[5] = Pat # 9, Spindle cell sarcoma, dose escalation phase
[6] = Pat # 10, Ovarian, dose escalation phase
[7] = Pat # 11, Uterine cancer, expansion phase
[8] = Pat # 13, Ovarian cancer, expansion phase
[9] = Pat # 14, Gall bladder cancer, expansion phase
[10] = Pat # 15, Desmoplastic small round cell tumor (DSRCT), expansion phase
[11] = Pat # 16, Colon cancer, expansion phase
[12] = Pat # 17, Prostate adenocarcinoma, expansion phase
[13] = Pat # 18, Ovarian cancer, expansion phase
[14] = Pat # 19, Prostate adenocarcinoma, expansion phase
[15] = Pat # 20, Uterine Cancer, expansion phase

Sequence of human MDR1 (P08183 whole entry): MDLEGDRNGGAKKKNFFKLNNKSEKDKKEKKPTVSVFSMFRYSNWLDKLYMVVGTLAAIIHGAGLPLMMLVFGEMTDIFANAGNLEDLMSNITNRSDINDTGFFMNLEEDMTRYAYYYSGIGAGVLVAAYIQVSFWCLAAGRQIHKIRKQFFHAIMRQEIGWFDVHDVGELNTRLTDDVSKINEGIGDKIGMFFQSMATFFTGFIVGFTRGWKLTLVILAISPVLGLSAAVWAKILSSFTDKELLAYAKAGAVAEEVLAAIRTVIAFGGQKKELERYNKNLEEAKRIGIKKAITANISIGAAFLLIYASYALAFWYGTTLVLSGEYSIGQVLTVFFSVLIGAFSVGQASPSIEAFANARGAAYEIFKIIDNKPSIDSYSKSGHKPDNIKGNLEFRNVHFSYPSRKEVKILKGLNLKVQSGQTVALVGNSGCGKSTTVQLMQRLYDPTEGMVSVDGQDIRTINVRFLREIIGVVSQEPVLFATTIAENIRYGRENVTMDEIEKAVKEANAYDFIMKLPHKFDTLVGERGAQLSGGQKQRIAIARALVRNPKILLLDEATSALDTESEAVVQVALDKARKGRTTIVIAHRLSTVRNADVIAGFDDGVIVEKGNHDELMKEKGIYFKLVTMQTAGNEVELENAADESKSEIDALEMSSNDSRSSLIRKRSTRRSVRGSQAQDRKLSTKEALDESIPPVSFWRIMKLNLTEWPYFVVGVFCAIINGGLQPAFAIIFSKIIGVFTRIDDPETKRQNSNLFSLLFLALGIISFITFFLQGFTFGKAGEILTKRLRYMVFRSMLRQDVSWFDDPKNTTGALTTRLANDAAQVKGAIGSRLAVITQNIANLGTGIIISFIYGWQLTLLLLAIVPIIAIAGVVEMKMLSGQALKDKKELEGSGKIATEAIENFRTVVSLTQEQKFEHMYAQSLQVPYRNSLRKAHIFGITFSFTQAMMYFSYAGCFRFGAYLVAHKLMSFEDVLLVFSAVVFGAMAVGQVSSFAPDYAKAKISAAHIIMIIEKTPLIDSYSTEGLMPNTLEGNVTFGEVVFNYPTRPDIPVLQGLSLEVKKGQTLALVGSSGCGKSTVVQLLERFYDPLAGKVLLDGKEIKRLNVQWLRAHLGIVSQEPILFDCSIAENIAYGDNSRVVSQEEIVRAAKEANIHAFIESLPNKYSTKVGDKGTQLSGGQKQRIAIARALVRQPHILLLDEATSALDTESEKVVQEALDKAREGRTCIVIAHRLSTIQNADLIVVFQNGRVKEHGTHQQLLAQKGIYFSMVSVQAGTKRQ

Cc1ccccc1CN1C(=O)C2=C(CCN(Cc3ccccc3)C2)N2CCN=C12 [ONC201, 7-benzyl-4-(2-methylbenzyl)-2,4,6,7,8,9-hexahydroimidazo [1,2-a]pyrido[3,4-e]pyrimidin-5(1H)-one]
Adverse Events Grade 1 [1, 4]: 0 | Adverse Events Grade 2-4 [1, 4]: 0 | Adverse Events Grade 1 [1, 5]: 0 | Adverse Events Grade 2-4 [1, 5]: 0 | Adverse Events Grade 1 [1, 6]: 0 | Adverse Events Grade 2-4 [1, 6]: 0 | Adverse Events Grade 1 [1, 7]: 0 | Adverse Events Grade 2-4 [1, 7]: 0 | Adverse Events Grade 1 ([1]; Pat # 12, Uterine cancer, expansion phase): 0 | Adverse Events Grade 1 [1, 8]: Vomiting | Adverse Events Grade 2-4 [1, 8]: 0 | Adverse Events Grade 1 [1, 9]: 0 | Adverse Events Grade 2-4 [1, 9]: 0 | Adverse Events Grade 1 [1, 10]: 0 | Adverse Events Grade 2-4 [1, 10]: 0 | Adverse Events Grade 1 [1, 11]: 0 | Adverse Events Grade 2-4 [1, 11]: 0 | Adverse Events Grade 1 [1, 12]: 0 | Adverse Events Grade 2-4 [1, 12]: 0 | Adverse Events Grade 1 [1, 13]: 0 | Adverse Events Grade 2-4 [1, 13]: 0 | Adverse Events Grade 1 [1, 14]: 0 | Adverse Events Grade 2-4 [1, 14]: 0 | Adverse Events Grade 1 [1, 15]: 0 | Adverse Events Grade 2-4 [1, 15]: 0 | drug-related adverse events ([1]; oral 125 to 625 mg every 3 weeks): No Grade >1 drug-related adverse events occurred | recommended phase II dose (RP2D) ([1]; oral, once every 3 weeks): 625 mg | Laboratory studies and physical exams ([1]; phase I patients): did not reveal any drug-related abnormalities | cardiovascular assessments ([1]; phase I patients): no drug-related effects | inhibitor of MDR1 (human MDR1): inhibitor | Tumor Type In Vitro Sensitivity ([2]; tumor type Breast cancer): Low | Tumor Type In Vitro Sensitivity ([2]; tumor type Colon adenocarcinoma): High | Tumor Type In Vitro Sensitivity ([2]; tumor type NSCLC): Med | Tumor Type In Vitro Sensitivity ([2]; tumor type Ovarian): Med | Tumor Type In Vitro Sensitivity ([2]; tumor type Prostate adenocarcinoma): High | Tumor Type In Vitro Sensitivity ([2]; tumor type Renal cancer): Med | Tumor Type In Vitro Sensitivity ([2]; tumor type Small cell lung cancer): High | Tumor Type In Vitro Sensitivity ([2]; tumor type Spindle cell sarcoma): Low | Tumor Type In Vitro Sensitivity ([2]; tumor type Uterine cancer): Med | increase in serum TRAIL (TRAIL; half of the patients, mostly peaked within the first 24 hours of drug administration): ~20% | number of patients with serum TRAIL induction (TRAIL; serum soluble TRAIL): 2 | Time on Study (advanced solid tumors; Pat # 1, NSCLC, 125 mg, 4 doses): 12 weeks | Time on Study (advanced solid tumors; Pat # 2, Appendiceal cancer, 250 mg, 4 doses): 12 weeks | Time on Study (advanced solid tumors; Pat # 3, Uterine cancer, 375 mg, 2 doses): 6 weeks | Time on Study (advanced solid tumors; Pat # 4, Renal cancer, 500 mg, 2 doses): 6 weeks | Time on Study (advanced solid tumors; Pat # 5, Breast cancer, 625 mg, 2 doses): 6 weeks | Time on Study (advanced solid tumors; Pat # 6, Prostate adenocarcinoma, 625 mg, 9 doses): 27 weeks | Time on Study (advanced solid tumors; Pat # 7, Small cell lung cancer, 625 mg, 2 doses): 6 weeks | Time on Study (advanced solid tumors; Pat # 8, Colon adenocarcinoma, 625 mg, 4 doses): 12 weeks | Time on Study (advanced solid tumors; Pat # 9, Spindle cell sarcoma, 625 mg, 2 doses): 6 weeks | Time on Study (advanced solid tumors; Pat # 10, Ovarian, 625 mg, 1 dose): 3 weeks | decrease of multiple nodes (advanced solid tumors; Patient #3, advanced clear cell endometrial cancer, mixed response with new nodes): > 30% | symptom relief (advanced solid tumors; Patient #4, renal cancer and bone metastasis with debilitating pain in the clavicle): relief from their clavicular pain | patients with stable disease (advanced solid tumors; dose escalation phase, 10 patients): Eight of 10 | M30 Induction (>50%) ([3]; Pat # 1, NSCLC, 125 mg): No | M30 Induction (>50%) ([3]; Pat # 2, Appendiceal cancer, 250 mg): No | M30 Induction (>50%) ([3]; Pat # 3, Uterine cancer, 375 mg): Yes | M30 Induction (>50%) ([3]; Pat # 4, Renal cancer, 500 mg): No | M30 Induction (>50%) ([3]; Pat # 5, Breast cancer, 625 mg): Yes | M30 Induction (>50%) ([3]; Pat # 6, Prostate adenocarcinoma, 625 mg): Yes | M30 Induction (>50%) ([3]; Pat # 7, Small cell lung cancer, 625 mg): Yes | M30 Induction (>50%) ([3]; Pat # 8, Colon adenocarcinoma, 625 mg): Yes | M30 Induction (>50%) ([3]; Pat # 9, Spindle cell sarcoma, 625 mg): No | M30 Induction (>50%) ([3]; Pat # 10, Ovarian, 625 mg): No | number of patients with induction in the M30 assay ([3]; dose escalation phase, after a single dose, most often on day 21 post-treatment): Four
